Results as given in PMC10483468, “Biomimetic Dispersive Solid-Phase Microextraction: A Novel Concept for High-Throughput Estimation of Human Oral Absorption of Organic Compounds” (Analytical Chemistry, 2023).
Values joined by “and” are separate entries in the source; they are usually repeats but may differ in a detail not shown here. Equal entries are not always repeated.

Assays:
human jejunum = details: value = Peff x 10^4; cited from earlier work
[1] = Dispersive biomimetic solid-phase extraction (d-BMSPE) with PC-modified POP material; assay type: in vitro ADME; details: 30 min; for d-BMSPE extraction efficiency: 3.5 mg/L CEC in 5 mL PBS pH 7.4, ca. 40 mg PC-modified POP, 15 rpm, 37 °C; for RMBE·10^4 (relative mol bioextraction): value = RMBE x 10^4, mol analyte extracted per mol PC attached, PBS pH 7.4, 37 °C
Experimental: The experimental procedure starts by spiking 5 mL of PBS at pH 7.4 mimicking pH conditions from the small intestine with 3.5 mg L^–1 of the selected CEC and mixing with ca. 40 mg of PC-modified POP material. The material is dispersed gently in the solution at 15 rpm for 30 min at physiological temperature (37 °C) using a lab rotator, followed by separation of the biomimetic material by centrifugation. After separation, the supernatant of the biomimetic extractions is analyzed by HPLC. The bioextractable fraction of every CEC is determined by subtraction from the original spike concentration.
Following the fabrication of the biomimetic polymer, several considerations should be set before carrying out the d-BMSPE. First, the amount of PC on the modified polymer (GMA@HMD@GA@HMD@PCs) to simulate the absorption area of the jejunum needs to be evaluated.
The estimated liquid volume under fasted conditions of the jejunum is ca. 20 mL.[45] However, in this work, solutions of 5 mL were selected in order to reduce the amount of biomimetic material used in every extraction protocol. Therefore, only 1/4 of the total PC amount calculated above (ca. 9 μmol) should be used to maintain the PC to jejunum liquid ratio. A crucial experimental parameter in our work is the amount of PC-laden biopolymer necessary to simulate the absorption area of the jejunum.
With respect to the remainder of experimental parameters, a gentle agitation was performed at 15 rpm to just enable a good dispersion of the polymer in the test solution. The extraction time was set to 30 min according to the average intestinal transit time and the length of the jejunum over the total length of the small intestine.[46] Finally, the extraction temperature was set to 37 °C to simulate physiological conditions.
In addition, a new bioparameter, “RMBE” that stands for "Relative Mol BioExtraction", is herein proposed for the first time. RMBE is defined as the extraction efficiency expressed as mol of analyte extracted per mol of PC attached to the biomimetic material under physiologically simulated conditions (e.g., extraction using PBS buffer at 37 °C, or gastrointestinal fluid surrogates, or actual human fluids, among others).

[2] = Dispersive extraction with the polymer prior to PC attachment (GMA@HMD@GA@HMD); assay type: physicochemical
[3] = Dispersive extraction with the free polymer (GMA monolith); assay type: physicochemical; details: free polymer without PC

SMILES	d-BMSPE extraction efficiency [1]	RMBE·10^4 (relative mol bioextraction) [1]	extraction efficiency, GMA@HMD@GA@HMD [2]	extraction efficiency, GMA monolith [3]	experimental Peff·10^4 (human jejunum)
CC1=C(C(=O)O)N2C(=O)[C@@H](NC(=O)[C@H](N)c3ccccc3)[C@H]2SC1 [CEX, cephalexin]					1.6[6] cm/ s
CN/C(=N/CCSCc1nc[nH]c1C)NC#N [CTM, cimetidine]	4.6 ± 2.1%	9.6 ± 1.7 mol CEC/mol PC			0.8[51] cm/ s
Cc1cnc(C(=O)NCCc2ccc(S(=O)(=O)NC(=O)NC3CCCCC3)cc2)cn1 [GLP, glipizide]					0.9[38] cm/ s

Continued, in another order:

d-BMSPE extraction efficiency [1]	RMBE·10^4 (relative mol bioextraction) [1]	extraction efficiency, GMA@HMD@GA@HMD [2]	extraction efficiency, GMA monolith [3]	SMILES	experimental Peff·10^4 (human jejunum)
10.6 ± 1.1%	22.6 ± 0.8 mol CEC/mol PC	~40%	~100%	O=C(O)Cc1ccccc1Nc1c(Cl)cccc1Cl [DCF, diclofenac]	1.6[40] cm/ s
26.3 ± 1.1%	49.8 ± 0.9 mol CEC/mol PC			NS(=O)(=O)c1cc(C(=O)O)c(NCc2ccco2)cc1Cl [FUR, furosemide]	0.6[49] cm/ s
0.9% and 0.9 ± 0.1%	3.6 ± 0.7 mol CEC/mol PC			CN(C)C(=N)N=C(N)N [MET, metformin]	0.1[52] cm/ s
15.3 ± 0.8%	60.3 ± 1.5 mol CEC/mol PC			CC(=O)Nc1ccc(O)cc1 [PCT, paracetamol]	4.0[6] cm/ s
